From patent US20250346615A1, “GLYCEROPHOSP[…] PREVENTING AND TREATING COVID-19 INFECTIONS AND METHOD FOR OBTAINING IT” (PLANTAREI BIOTECH S.R.L., priority 2022, published 2025) come the findings set out here.

Where two headings read alike, the source gives them in different places.

For assay [1], the system named is Human monocytes. As to conditions: GPI 300 uM, 24 hours of treatment (FIG. 5).
Description: (§1) The purpose of the experiments conducted is the in vitro evaluation of the anti-inflammatory activity and of the immune modulating power in the response to bacterial or viral activation, of monocytes activated and treated with GPI. Measurements of protein production or miRNA levels were expressed as an increase relative to the respective control (unstimulated) cells.
Human monocytes were isolated from fresh buffy coats of healthy blood donors, kindly provided by the Centro Immunotrasfusionale, Hospital of Ferrara, Italy, through a Ficoll-Paque™ PLUS gradient followed by Percoll™. […]
Total RNA was extracted from cultures after 12 and 24 h using the total RNA purification Plus kit, The RNA quality and concentration of the samples were measured with the NanoDrop™ ND-1000 (Thermo Fisher Scientific). […]
Real-time PCR was performed according to the user's manual of the Inflammatory RT^2 profiler PCR Array (Qiagen) with a StepOnePlus™ Real-Time PCR System (Applied Biosystems™, Foster City, CA, USA) and using RT^2 SYBR Green ROX FAST Master Mix (Qiagen). Thermal cycling and fluorescence detection were as follows: 95° C. for 10 min, followed by 40 cycles of 95° C. for 15 s, and 60° C. for 1 min. […] Data were analyzed using the Web-based PCR array data analysis software, which is available at https://www.qiagen.com/it/shop/genes-and-pathways/data-analysis-center-overview-page/. […]
In assay [2] the test system is Human monocytes. As to conditions: GPI 300 uM; for protein expression level (fold increase over control cells): LPS stimulus.
Description: as §1
Human monocytes were isolated from fresh buffy coats of healthy blood donors, kindly provided by the Centro Immunotrasfusionale, Hospital of Ferrara, Italy, through a Ficoll-Paque™ PLUS gradient followed by Percoll™. PBMCs were firstly obtained by 1.077 g/ML Ficoll-Paque™ PLUS (GE Healthcare Life Sciences, Little Chalfont, UK) density gradient separation according to the manufacturer's protocol. After collecting the mononuclear cells located at the interface between Ficoll and plasma-medium layer, these were washed with PBS, then layered over a solution of 1.130 g/mL Percoll™ (GE Healthcare Life Sciences) before centrifugation at 1650 rpm for 30 min at 4° C. The monocyte layer, which appeared cloudy and occasionally with few red spots, was carefully aspirated and washed with PBS to remove traces of Percoll™. The harvested monocytes were then suspended in RPMI 1640 medium (EuroClone) containing 2% FBS, and incubated at 37° C. and 5% CO2. After 1 h, non-adherent cells including residual lymphocytes were removed, and monocytes were detached using a cell scraper, then seeded onto plastic culture wells. […]
The supernatants of the cultures after 5 and 24 h were collected, centrifuged at 400×g for 10 min at 4° C., then analyzed for TF HGF, PGE-2 and IL-10 production using commercial ELISA kits (Thermo Fisher Scientific) according to the manufacturer's instructions. […]
Measurements of protein production or miRNA levels were expressed as fold increase over the respective control (unstimulated) cells, and are means (SD) of triplicates from one representative experiment of 4 experiments performed with cells from different donors.
The test system of assay [3] is Human monocytes. As to conditions: GPI 300 uM, activated monocytes, 24 hours of treatment (FIG. 6).
Description: Human monocytes were isolated from fresh buffy coats of healthy blood donors, kindly provided by the Centro Immunotrasfusionale, Hospital of Ferrara, Italy, through a Ficoll-Paque™ PLUS gradient followed by Percoll™. PBMCs were firstly obtained by 1.077 g/ML Ficoll-Paque™ PLUS (GE Healthcare Life Sciences, Little Chalfont, UK) density gradient separation according to the manufacturer's protocol. After collecting the mononuclear cells located at the interface between Ficoll and plasma-medium layer, these were washed with PBS, then layered over a solution of 1.130 g/mL Percoll™ (GE Healthcare Life Sciences) before centrifugation at 1650 rpm for 30 min at 4° C. The monocyte layer, which appeared cloudy and occasionally with few red spots, was carefully aspirated and washed with PBS to remove traces of Percoll™. The harvested monocytes were then suspended in RPMI 1640 medium (EuroClone) containing 2% FBS, and incubated at 37° C. and 5% CO2. After 1 h, non-adherent cells including residual lymphocytes were removed, and monocytes were detached using a cell scraper, then seeded onto plastic culture wells.
Treatment with GPI: 300 uM. […]
Measurements of protein production or miRNA levels were expressed as fold increase over the respective control (unstimulated) cells, and are means (SD) of triplicates from one representative experiment of 4 experiments performed with cells from different donors. […]

Take “L-α-glycero-phospho-D-myo-inositol [GPI]”: the “miRNA level related to M1 (inflammatory) or M2 (antiinflammatory) commitment” value in the assay with Human monocytes [1] is recorded as “inhibitory effects”. For the same substance, the “protein expression level (fold increase over control cells)” value in the assay with Human monocytes [2] (5 hours of treatment (FIG. 3)) and with Human monocytes [2] (24 hours of treatment (FIG. 4)) was “inhibitory effects” in each case. The inflammatory cytokine production entry in the assay on Human monocytes [2] (monocytes in inflammation / LPS sepsis / viral infection mimicking environment) is recorded as “reduce”. Also, in the assay with Human monocytes [3], the “production of IL12 and 23 during inflammation” value is on record as “reduction”.
